Data on 15 compounds can be found in ChEMBL document CHEMBL3616419, “Synthesis, structure-activity relationship and biological evaluation of novel nitrogen mustard sophoridinic acid derivatives as potential anticancer agents” (Bioorg Med Chem Lett, 2015).

One series has as its system HepG2. Put plainly: Antiproliferative activity against human HepG2 cells incubated for 48 hrs by MTT assay. The format is functional, cell-based. To be noted: HepG2, 48 h.
Series [1] is described as follows: Stability of the compound. The format is physicochemical.
Series [2] in a line: Antitumor activity against […] HepA cells xenografted in KM mouse assessed as inhibition of tumor weight at 36 mg/kg, iv dosed for 10 days relative to untreated control. The format is functional. To be noted: 240 h, read-out: TGI. (In general: Xenograft models place foreign cells or tissue in a host animal.)
The nature of series [3]: Antitumor activity against […] HepA cells xenografted in KM mouse assessed as inhibition of tumor weight at 72 mg/kg, iv dosed for 10 days relative to untreated control. In kind it is functional. Conditions: 240 h, read-out: TGI.
In the next series the test system is Mus musculus. In words: Toxicity in […] HepA cells xenografted KM mouse assessed as reduction in body weight at 18 to 72 mg/kg, iv dosed for 10 days relative to untreated control. The format is organism-based. The arrangement: scale not given: the % may be the effect or the level left. To be noted: in vivo, 240 h.
Series [4] can be described thus: Antitumor activity against […] HepA cells xenografted in KM mouse assessed as inhibition of tumor weight at 18 mg/kg, iv dosed for 10 days relative to untreated control. The format is functional. To be noted: 240 h, read-out: TGI.

Converted amounts (≈) assume the structure as drawn. Bounds are passed on as bounds.

`COC(=O)CCC[C@H]1[C@H]2CCCN3CCC[C@H](CN1C(=O)c1ccc(N(CCCl)CCCl)cc1)[C@@H]23`: inhibition in the series with HepG2 was half-maximal at 167 µg/mL (≈ 319 µM) (IC50). For the same compound, the Stability entry in series [1] is on record as “Unstable”. `N[C@@H](Cc1ccc(N(CCCl)CCCl)cc1)C(=O)O` [MELPHALAN] displayed a 50% inhibitory concentration (IC50) in the series with HepG2 of 0.41 µg/mL (≈ 1.34 µM). Still for that read-out and setting: in the case of `CC(C)OC(=O)CCC[C@@H]1NC[C@H]2CCCN3CCC[C@H]1[C@H]23` it was 93.1 µg/mL (≈ 302 µM).

The compound `O=C1CCC[C@@H]2[C@H]3CCCN4CCC[C@H](CN12)[C@@H]34` [SOPHORIDINE] registered an IC50 with HepG2 of 1160 µg/mL (≈ 4670 µM).

`CCOC(=O)CCC[C@H]1[C@H]2CCCN3CCC[C@H](CN1C(=O)c1ccc(N(CCCl)CCCl)cc1)[C@@H]23` gave an IC50 in the series with HepG2 of 91.2 µg/mL (≈ 169 µM). The Stability result in series [1] is reported as “Unstable”.

The compound `CC(C)OC(=O)CCC[C@H]1[C@H]2CCCN3CCC[C@H](CN1C(=O)c1ccc(N(CCCl)CCCl)cc1)[C@@H]23` gave a 50% inhibitory concentration (IC50) in the series with HepG2 of 2.39 µg/mL (≈ 4.33 µM). In series [1], the Stability result is listed as “Unstable”. The compound `CCCCOC(=O)CCC[C@@H]1NC[C@H]2CCCN3CCC[C@H]1[C@H]23` gave an IC50 in the series on HepG2 of 136 µg/mL (≈ 421 µM).

In the series on HepG2, `CCCOC(=O)CCC[C@@H]1NC[C@H]2CCCN3CCC[C@H]1[C@H]23` gave a half-inhibitory concentration (IC50) of 196 µg/mL (≈ 635 µM). With `O=C(CCC[C@H]1[C@H]2CCCN3CCC[C@H](CN1Cc1ccccc1)[C@@H]23)Nc1ccc(N(CCCl)CCCl)cc1`, the inhibition in vivo at 36 mg/kg in series [2] is 47.3%. In addition, the concentration for half-maximal inhibition (IC50) in the series on HepG2 was 0.47 µg/mL (≈ 0.822 µM). Also, the inhibition in vivo at 72 mg/kg in series [3] amounted to 58.2%. Besides, the Activity entry in the series on Mus musculus was “<= 20%”. In addition, the inhibition in vivo at 18 mg/kg in series [4] was determined as 42.5%. On to `O=C(CCC[C@H]1[C@H]2CCCN3CCC[C@H](CN1Cc1ccccc1)[C@@H]23)N(CCCl)CCCl`, for which the IC50 in the series with HepG2 came to 2.74 µg/mL (≈ 5.7 µM).

As for `COC(=O)CCC[C@@H]1NC[C@H]2CCCN3CCC[C@H]1[C@H]23`, in the series with HepG2, the half-inhibitory concentration (IC50) stood at 1650 µg/mL (≈ 5890 µM). `CCCCOC(=O)CCC[C@H]1[C@H]2CCCN3CCC[C@H](CN1C(=O)c1ccc(N(CCCl)CCCl)cc1)[C@@H]23`: the half-inhibitory concentration (IC50) in the series with HepG2 stood at 25 µg/mL (≈ 44.1 µM). Further, the Stability result in series [1] is recorded as “Unstable”.

With `CCOC(=O)CCC[C@@H]1NC[C@H]2CCCN3CCC[C@H]1[C@H]23`, inhibition in the series on HepG2 was half-maximal at 223 µg/mL (≈ 757 µM) (IC50).

The compound `CCCOC(=O)CCC[C@H]1[C@H]2CCCN3CCC[C@H](CN1C(=O)c1ccc(N(CCCl)CCCl)cc1)[C@@H]23` registered a half-inhibitory concentration (IC50) in the series on HepG2 of 44.6 µg/mL (≈ 80.7 µM). Moreover, the Stability result in series [1] is reported as “Unstable”.

As to `O=C(CCC[C@H]1[C@H]2CCCN3CCC[C@H](CN1Cc1ccccc1)[C@@H]23)OCc1ccc(N(CCCl)CCCl)cc1`, the half-inhibitory concentration (IC50) with HepG2 worked out at 1.63 µg/mL (≈ 2.78 µM).

Broadly, the IC50 is the point on the concentration scale where inhibition reaches its midpoint.
